Results as given in patent US20120130104A1, “CYCLOPROPENES-[…] TO CONTROL RIPENING PROCESSES OF AGRICULTURAL PRODUCTS” (priority 2005, published 2012).

Tested on: tomatoes
Experiment: Inhibitory effects of cyclopropene compounds on tomato ripening
Assay type: in vivo
Settings: for Degree of ripening 0, number of tomatoes, Treated / Degree of ripening 1, number of tomatoes, Treated / Degree of ripening 2, number of tomatoes, Treated / Degree of ripening 3, number of tomatoes, Treated / Degree of ripening 4, number of tomatoes, Treated / Degree of ripening 5, number of tomatoes, Treated: scale 0 = no red color, 5 = completely ripened to dark red
Method: A cube (60×60×60 cm) was fabricated using a transparent acrylic plastic plate. The upper surface of the cube was equipped with two valves for air-injection and exhaust. Immediately prior to beginning of the red ripening stages, 20 blue tomatoes were harvested and divided into a treatment group and a control group which were then placed in acrylic plastic vessels, respectively. Among two plastic vessels, the treatment group was treated with 1-methylcyclopropene generated by injection of 3 mL diglyme solution containing 0.2 g of 1-methyl-1-(methanesulfonyloxy)-2-(trimethylsilyl)cyclopropane {synthesized in Section (2) of Example 5} into a column packed with 5 g of 15% Bu4NF coated Silica gel {prepared in Section (2) of Example 4} while maintaining the air flow at a flow rate of 2 L/min using a small compressor (see FIG. 3).
Tomatoes of the treatment group were treated for 1 hour according to the above-mentioned method and were then left for 12 hours while closing the valve. And then, tomatoes of the treatment group and tomatoes of the control group were observed on a progress of turning into red color. Based on the observation results, the ripening progress of tomatoes was evaluated.
Herein, the degree of ripening of tomatoes was classified on a scale of 0 to 5:
0: No red color similar to when completely green tomatoes were harvested 5: Completely ripened to dark red 1 to 4: Red color between the scale of 0 and 5
Therefore, the higher value represents the redder tomato color.

Structure (SMILES): CC1=CC1 [1-methylcyclopropene]
- inhibitory effects on the ripening process of tomatoes (1-methylcyclopropene generated by the device): significant inhibitory effects
- Degree of ripening 0, number of tomatoes, Treated (Day 0): 10
- Degree of ripening 1, number of tomatoes, Treated (Day 0): 0
- Degree of ripening 2, number of tomatoes, Treated (Day 0): 0
- Degree of ripening 3, number of tomatoes, Treated (Day 0): 0
- Degree of ripening 4, number of tomatoes, Treated (Day 0): 0
- Degree of ripening 5, number of tomatoes, Treated (Day 0): 0
- Degree of ripening 0, number of tomatoes, Treated (Day 1): 10
- Degree of ripening 1, number of tomatoes, Treated (Day 1): 0
- Degree of ripening 2, number of tomatoes, Treated (Day 1): 0
- Degree of ripening 3, number of tomatoes, Treated (Day 1): 0
- Degree of ripening 4, number of tomatoes, Treated (Day 1): 0
- Degree of ripening 5, number of tomatoes, Treated (Day 1): 0
- Degree of ripening 0, number of tomatoes, Treated (Day 2): 10
- Degree of ripening 1, number of tomatoes, Treated (Day 2): 0
- Degree of ripening 2, number of tomatoes, Treated (Day 2): 0
- Degree of ripening 3, number of tomatoes, Treated (Day 2): 0
- Degree of ripening 4, number of tomatoes, Treated (Day 2): 0
- Degree of ripening 5, number of tomatoes, Treated (Day 2): 0
- Degree of ripening 0, number of tomatoes, Treated (Day 3): 9
- Degree of ripening 1, number of tomatoes, Treated (Day 3): 1
- Degree of ripening 2, number of tomatoes, Treated (Day 3): 0
- Degree of ripening 3, number of tomatoes, Treated (Day 3): 0
- Degree of ripening 4, number of tomatoes, Treated (Day 3): 0
- Degree of ripening 5, number of tomatoes, Treated (Day 3): 0
- Degree of ripening 0, number of tomatoes, Treated (Day 4): 8
- Degree of ripening 1, number of tomatoes, Treated (Day 4): 1
- Degree of ripening 2, number of tomatoes, Treated (Day 4): 1
- Degree of ripening 3, number of tomatoes, Treated (Day 4): 0
- Degree of ripening 4, number of tomatoes, Treated (Day 4): 0
- Degree of ripening 5, number of tomatoes, Treated (Day 4): 0
- Degree of ripening 0, number of tomatoes, Treated (Day 5): 8
- Degree of ripening 1, number of tomatoes, Treated (Day 5): 1
- Degree of ripening 2, number of tomatoes, Treated (Day 5): 0
- Degree of ripening 3, number of tomatoes, Treated (Day 5): 1
- Degree of ripening 4, number of tomatoes, Treated (Day 5): 0
- Degree of ripening 5, number of tomatoes, Treated (Day 5): 0
- Degree of ripening 0, number of tomatoes, Treated (Day 6): 6
- Degree of ripening 1, number of tomatoes, Treated (Day 6): 2
- Degree of ripening 2, number of tomatoes, Treated (Day 6): 1
- Degree of ripening 3, number of tomatoes, Treated (Day 6): 0
- Degree of ripening 4, number of tomatoes, Treated (Day 6): 1
- Degree of ripening 5, number of tomatoes, Treated (Day 6): 0
- Degree of ripening 0, number of tomatoes, Treated (Day 7): 6
- Degree of ripening 1, number of tomatoes, Treated (Day 7): 2
- Degree of ripening 2, number of tomatoes, Treated (Day 7): 1
- Degree of ripening 3, number of tomatoes, Treated (Day 7): 0
- Degree of ripening 4, number of tomatoes, Treated (Day 7): 0
- Degree of ripening 5, number of tomatoes, Treated (Day 7): 1
- Degree of ripening 0, number of tomatoes, Treated (Day 8): 5
- Degree of ripening 1, number of tomatoes, Treated (Day 8): 2
- Degree of ripening 2, number of tomatoes, Treated (Day 8): 1
- Degree of ripening 3, number of tomatoes, Treated (Day 8): 1
- Degree of ripening 4, number of tomatoes, Treated (Day 8): 0
- Degree of ripening 5, number of tomatoes, Treated (Day 8): 1
- Degree of ripening 0, number of tomatoes, Treated (Day 9): 2
- Degree of ripening 1, number of tomatoes, Treated (Day 9): 3
- Degree of ripening 2, number of tomatoes, Treated (Day 9): 2
- Degree of ripening 3, number of tomatoes, Treated (Day 9): 1
- Degree of ripening 4, number of tomatoes, Treated (Day 9): 1
- Degree of ripening 5, number of tomatoes, Treated (Day 9): 1
- Degree of ripening 0, number of tomatoes, Treated (Day 10): 1
- Degree of ripening 1, number of tomatoes, Treated (Day 10): 1
- Degree of ripening 2, number of tomatoes, Treated (Day 10): 3
- Degree of ripening 3, number of tomatoes, Treated (Day 10): 2
- Degree of ripening 4, number of tomatoes, Treated (Day 10): 1
- Degree of ripening 5, number of tomatoes, Treated (Day 10): 2
- full ripening of tomatoes of the treatment group (even after 10 days): most of them did not exhibit full ripening
- time after which tomatoes of the treatment group began the ripening process (treatment group, control group began to ripen after 1 day): about 3 days
